Structures are written as SMILES. Like-named read-outs stand apart in the source and are kept apart here.

Data on 3 compounds can be found in patent US8012975B2, “Antitumoral analogs of ET-743” (Pharma Mar, S.A., priority 2000, dated 2011).

The subject of one series is Hs746t. Description: Cytotoxic activity (M) panel, Gastric Hs746t. The following applies: Homo sapiens, read-out: CYTOTOXIC ACTIVITY (M) Hs746t.
The test system of the next series is 5637. Kind of series: Cytotoxic activity (M) panel, Bladder 5637. The following applies: read-out: CYTOTOXIC ACTIVITY (M) 5637.
The test system of a further series is CHSA. Description: Cytotoxic activity (M) panel, Chondrosarcoma CHSA. Conditions: read-out: CYTOTOXIC ACTIVITY (M) CHSA.
In another series the test system is OSA-FH. Kind of series: Cytotoxic activity (M) panel, Osteosarcoma OSA-FH. The following applies: read-out: CYTOTOXIC ACTIVITY (M) OSA-FH.
A further series has as its system 786-O. Description: Cytotoxic activity (M) panel, Renal 786-O. Conditions: Homo sapiens, 786-0, read-out: CYTOTOXIC ACTIVITY (M) 786-O.
Series [1] has as its system NCI-H187. Description: Cytotoxic activity (M) panel, SCL NCI-H187. The following applies: Homo sapiens, NCI-H187, read-out: CYTOTOXIC ACTIVITY (M) NCI-H187.
The next series deals with LNCAP. Description: Cytotoxic activity (M) panel, Prostate LNCAP. The following applies: Homo sapiens, read-out: CYTOTOXIC ACTIVITY (M) LNCAP.
Series [2] concerns MX-1. Kind of series: Cytotoxic activity (M) panel, Breast MX-1. The following applies: Homo sapiens, MX1, read-out: CYTOTOXIC ACTIVITY (M) MX-1.
A further series deals with SK-OV-3. Description: Cytotoxic activity (M) panel, Ovary SK-OV-3. The following applies: Homo sapiens, SK-OV-3, read-out: CYTOTOXIC ACTIVITY (M) SK-OV-3.
In the next series the test system is FADU. Description: Cytotoxic activity (M) panel, Pharnynx FADU. The following applies: Homo sapiens, read-out: CYTOTOXIC ACTIVITY (M) FADU.
Series [3] relates to Y-79. Kind of series: Cytotoxic activity (M) panel, Retinoblastoma Y-79. Conditions: Homo sapiens, Y79, read-out: CYTOTOXIC ACTIVITY (M) Y-79.
The subject of series [4] is PC3.
The test system of a further series is MEL-28. Kind of series: Cytotoxic activity (M) panel, Melanoma Mel-28. The following applies: Homo sapiens, SK-MEL-28, read-out: CYTOTOXIC ACTIVITY (M) Mel-28.
For series [5], the system named is SK-HEP-1. Kind of series: Cytotoxic activity (M) panel, Liver SK-HEP-1. The following applies: Homo sapiens, SK-HEP1, read-out: CYTOTOXIC ACTIVITY (M) SK-HEP-1.
The subject of the next series is PANC-1. Description: Cytotoxic activity (M) panel, Pancreas PANC-1. Conditions: Homo sapiens, PANC-1, read-out: CYTOTOXIC ACTIVITY (M) PANC-1.
Another series has as its system HT-29. Kind of series: Cytotoxic activity (M) panel, Colon HT-29. Conditions: Homo sapiens, HT-29, read-out: CYTOTOXIC ACTIVITY (M) HT-29.
The subject of series [6] is PC3. Kind of series: Cytotoxic activity (M) panel, Prostate PC3. Conditions: Homo sapiens, PC-3, read-out: CYTOTOXIC ACTIVITY (M) PC3.
The subject of series [7] is A549. Description: Cytotoxic activity (M) panel, NSCL A549. The following applies: Homo sapiens, A549, read-out: CYTOTOXIC ACTIVITY (M) A549.
Series [8] concerns SK-HEP-1.
The next series has as its system DU-145. Description: Cytotoxic activity (M) panel, Prostate DU-145. The following applies: Homo sapiens, DU-145, read-out: CYTOTOXIC ACTIVITY (M) DU-145.
Another series relates to SW-694. Kind of series: Cytotoxic activity (M) panel, Fibrosarcoma SW-694. The following applies: read-out: CYTOTOXIC ACTIVITY (M) SW-694.
The subject of series [9] is Y-79.
The subject of series [10] is MX-1.
Series [11] has as its system A549.
The subject of series [12] is NCI-H187.

For the compound `CCCC(=O)NC[C@H]1c2c(c(OC(C)=O)c(C)c3c2OCO3)CC2[C@H]3c4c(cc(C)c(OC)c4O)C[C@@H]([C@H](O)N21)N3C` (stereo partly shown) [drawing 225], the IC50 with Hs746t is 2.97e-08 M; in the series with 5637 it was 2.81e-09 M; in the series with CHSA, 1.73e-08 M; in the series with OSA-FH it was 8.56e-08 M; in the series on 786-O, 6.55e-09 M; in the series on NCI-H187 [1], 3.98e-11 M. The IC50 in the series on LNCAP was determined as 5.39e-09 M; in the series with MX-1 [2], 2.5e-06 M; in the series on SK-OV-3, 2.21e-07 M; with FADU it was 7.94e-09 M; with Y-79 [3] it was 3.14e-09 M; in the series with MEL-28, 3.05e-08 M. Moreover, the IC50 in the series with SK-HEP-1 [5] was 5.07e-09 M; in the series with PANC-1, 2.9e-09 M. Besides, the “CYTOTOXIC ACTIVITY (M) PC3” value in the series on PC3 [4] is given as 1.46-08 M.
For `COc1c(C)cc2c(c1O)[C@@H]1C3Cc4c(OC(C)=O)c(C)c5c(c4[C@H](COC(=O)/C=C/c4cccc(C(F)(F)F)c4)N3[C@@H](O)[C@H](C2)N1C)OCO5` (stereo partly shown) [drawing 233], the IC50 in the series on Hs746t was 3.57e-08 M; in the series on 5637 it was 1.14e-08 M; with HT-29 it was 4.08e-07 M; in the series with PC3 [6], 7.88e-08 M; with CHSA it was 2.53e-08 M; in the series with OSA-FH it was 6.34e-08 M. Further, the IC50 worked out at 1.46e-08 M in the series on 786-O; 8.02e-10 M in the series on NCI-H187 [1]; 2.81e-06 M with A549 [7]; 5.98e-07 M in the series with LNCAP; 2.81e-08 M in the series on MX-1 [2]; 7.03e-06 M in the series with SK-OV-3. For the same compound, the IC50 was determined as 4.59e-07 M in the series with FADU; 8.85e-10 M with Y-79 [3]; 1.76e-08 M with MEL-28; 7.03e-08 M in the series on DU-145; 1.03e-08 M in the series on PANC-1; 3.38e-06 M in the series on SW-694. For the same compound, in the series with SK-HEP-1 [8], the “CYTOTOXIC ACTIVITY (M) SK-HEP-1” value is 1.63 to 08 M.
Take `COc1c(C)cc2c(c1O)[C@@H]1C3Cc4c(OC(C)=O)c(C)c5c(c4[C@H](COC(=O)/C=C/c4ccccc4)N3[C@@H](O)[C@H](C2)N1C)OCO5` (stereo partly shown) [drawing 234]: the IC50 in the series with Hs746t was determined as 1.24e-09 M; in the series on 5637, 1.71e-08 M; in the series with HT-29 it was 2.96e-07 M; in the series on CHSA it was 4.49e-08 M; in the series with OSA-FH it was 5.26e-07 M; with 786-O it was 5.26e-12 M. Also, the IC50 in the series with Y-79 [9] turned out to be 0.0778 pM; with LNCAP, 6.83e-08 M; with SK-OV-3 it was 7.78e-08 M; with FADU, 2.46e-08 M; with MX-1 [10], 0.000725 nM; with MEL-28, 5.89e-08 M. For the same compound, the IC50 in the series with DU-145 was 1.56e-06 M; in the series on SK-HEP-1 [5] it was 1.94e-09 M; in the series on PANC-1, 9.47e-09 M; with SW-694, 6.69e-06 M; in the series on NCI-H187 [12], 0.0778 pM. Further, the “CYTOTOXIC ACTIVITY (M) A549” value in the series on A549 [11] is 1.56 to 05 M.
